According to PMC7437366 (Biochemistry, 2010):
Read-outs that look alike come from different tables or passages of the source.

Legend:
[1] = test system: AKHR-mediated ERK1/2 activation; assay type: cell-based, Bombyx; settings: for Dose dependence of PKC inhibitor effect on ERK1/2 activation: inhibitor 0.03 μM to 3 μM, three independent experiments
[2] = test system: magnolol-induced lipolysis; settings: MEK inhibitor; ref [57]; cited from earlier work
fat body of Bombyx = experiment: Lipolysis in the fat body of Bombyx; settings: MEK inhibitor treatment; preliminary experiment, data not shown
[3] = test system: adipokinetic effect of AKH; settings: M. sexta, in vivo; ref [44]; cited from earlier work

COc1cc2ncnc(Nc3cccc(Cl)c3)c2cc1OC [AG1478]
Effect on AKH-induced ERK1/2 activation, EGFR inhibitor ([1]; AG1478 1 μM, 1 h, 37°C, AKH 5 nM, 5 min, Fig. 9, S2): no effect on ERK1/2 activation

CCCCCCCCCCCCCCCCCCOCC(COP(=O)([O-])OCC[N+](C)(C)C)OC (stereo not drawn) [ET-18-OCH3]
Effect of PLC inhibitor on ERK1/2 activation ([1]; ET-18-OCH3 100 μM, AKH 5 nM, S1): could not block the activation of ERK1/2

O=C(NCCN1CCC(n2c(=O)[nH]c3ccccc32)CC1)c1cc2cc(F)ccc2[nH]1 [FIPI]
Effect of PLD inhibitor on ERK1/2 activation ([1]; FIPI 1 μM, 1 hour, AKH 5 nM, 5 min, Fig. 4B, S1): could not block the activation of ERK1/2

CN(C)CCCn1cc(C2=C(c3c[nH]c4ccccc34)C(=O)NC2=O)c2ccccc21 [GF109203X]
Dose dependence of PKC inhibitor effect on ERK1/2 activation ([1]; 1 hour, AKH 5 nM, 5 min): decrease in the activation of ERK1/2 stimulated by 5 nM AKH in a dose-dependent manner

CNC(=O)[C@H](Cc1c[nH]c2ccccc12)NC(=O)[C@@H](CC(=O)NO)CC(C)C [GM6001]
Effect on AKH-induced ERK1/2 activation, MMP inhibitor ([1]; GM6001 5 μM, 1 h, 37°C, AKH 5 nM, 5 min, Fig. 9, S2): no effect on ERK1/2 activation

COc1ccc2c(c1)c(C1=C(c3c[nH]c4ccccc34)C(=O)NC1=O)cn2CCCN(C)C [Go6983]
Effect on AKH-induced ERK1/2 phosphorylation, PKC inhibitor ([1]; Go6983 3 μM, 1 h, 37°C, AKH 5 nM, 5 min, Fig. 9): significant decrease of AKH-induced phosphorylation of ERK1/2
Dose dependence of PKC inhibitor effect on ERK1/2 activation ([1]; 1 hour, AKH 5 nM, 5 min): decrease in the activation of ERK1/2 stimulated by 5 nM AKH in a dose-dependent manner

O=S(=O)(NCCNC/C=C/c1ccc(Br)cc1)c1cccc2cnccc12 [H89]
Dose dependence of inhibition of ERK1/2, PKA inhibitor ([1]; H89 1 μM to 20 μM, 1 hour, AKH 5 nM, 5 min, mean ± S.E.M (n = 3)): Inhibition of ERK1/2 is dependent on the concentration of H89
Effect on ERK1/2 phosphorylation, PKA inhibitor ([1]; H89 10 μM, 1 hour preincubation, 37°C, AKH 0.1 nM to 10 nM, 5 min, mean ± S.E.M (n = 3)): significantly decreased ERK1/2 phosphorylation
Effect on AKH-induced ERK1/2 phosphorylation, PKA inhibitor ([1]; H89 20 μM, 1 h, 37°C, AKH 5 nM, 5 min, Fig. 9): significant decrease of AKH-induced phosphorylation of ERK1/2

COc1cccc(-c2cc(=O)c3ccccc3o2)c1N [PD98059]
Effect on magnolol-induced lipolysis [2]: inhibited

CC(C)(C)n1nc(-c2ccc(Cl)cc2)c2c(N)ncnc21 [PP2]
Effect on AKH-induced ERK1/2 activation, Src inhibitor ([1]; PP2 10 μM, 1 h, 37°C, AKH 5 nM, 5 min, Fig. 9, S2): no effect on ERK1/2 activation

N#CC(=C(/N)Sc1ccccc1N)/C(C#N)=C(/N)Sc1ccccc1N [U0126]
Effect on lipolysis in the fat body of Bombyx (fat body of Bombyx): blockade of lipolysis in the fat body of Bombyx
Effect on AKH-induced ERK1/2 phosphorylation, MEK inhibitor ([1]; U0126 100 nM, 1 h, 37°C, AKH 5 nM, 5 min, Fig. 9): significant decrease of AKH-induced phosphorylation of ERK1/2

COc1ccc2c(c1)CC[C@@H]1[C@@H]2CC[C@]2(C)[C@@H](NCCCCCCN3C(=O)C=CC3=O)CC[C@@H]12 [U73122]
Effect of PLC inhibitor on ERK1/2 activation ([1]; U73122 10 μM, 1 hour, AKH 5 nM, 5 min, Fig. 4A, S1): could not block the activation of ERK1/2

COC[C@H]1OC(=O)c2coc3c2[C@@]1(C)C1=C(C3=O)[C@@H]2CCC(=O)[C@@]2(C)C[C@H]1OC(C)=O [Wortmanmin, wortmannin]
Effect on AKH-induced ERK1/2 activation, PI3K inhibitor ([1]; wortmannin 1 μM, 1 h, 37°C, AKH 5 nM, 5 min, Fig. 9, S2): no effect on ERK1/2 activation

COC(=O)C1=C(C)NC(C)=C(C(=O)OC)C1c1ccccc1[N+](=O)[O-] [nifedipine]
Effect of Ca2+ channel inhibitors on adipokinetic effect of AKH [3]: effectively impair the adipokinetic effect of AKH

COc1ccc(CCN(C)CCCC(C#N)(c2ccc(OC)c(OC)c2)C(C)C)cc1OC (stereo not drawn) [verapamil]
Effect of Ca2+ channel inhibitors on adipokinetic effect of AKH [3]: effectively impair the adipokinetic effect of AKH
